Measured values: publication PMC7565406, “BMS-599626, a Highly Selective Pan-HER Kinase Inhibitor, Antagonizes ABCG2-Mediated Drug Resistance” (Cancers, 2020)

Assays:
[1] = target: T1, ABCG2 (Homo sapiens, UniProt Q9UNQ0); experiment: radiolabelled drug efflux in ABCG2-overexpressing versus parental cells; assay type: cell-based; set-up: wild-type ABCG2 (R482) in HEK293 cells; NCI-H460/MX20 cells
T1 sequence (Q9UNQ0 1-655): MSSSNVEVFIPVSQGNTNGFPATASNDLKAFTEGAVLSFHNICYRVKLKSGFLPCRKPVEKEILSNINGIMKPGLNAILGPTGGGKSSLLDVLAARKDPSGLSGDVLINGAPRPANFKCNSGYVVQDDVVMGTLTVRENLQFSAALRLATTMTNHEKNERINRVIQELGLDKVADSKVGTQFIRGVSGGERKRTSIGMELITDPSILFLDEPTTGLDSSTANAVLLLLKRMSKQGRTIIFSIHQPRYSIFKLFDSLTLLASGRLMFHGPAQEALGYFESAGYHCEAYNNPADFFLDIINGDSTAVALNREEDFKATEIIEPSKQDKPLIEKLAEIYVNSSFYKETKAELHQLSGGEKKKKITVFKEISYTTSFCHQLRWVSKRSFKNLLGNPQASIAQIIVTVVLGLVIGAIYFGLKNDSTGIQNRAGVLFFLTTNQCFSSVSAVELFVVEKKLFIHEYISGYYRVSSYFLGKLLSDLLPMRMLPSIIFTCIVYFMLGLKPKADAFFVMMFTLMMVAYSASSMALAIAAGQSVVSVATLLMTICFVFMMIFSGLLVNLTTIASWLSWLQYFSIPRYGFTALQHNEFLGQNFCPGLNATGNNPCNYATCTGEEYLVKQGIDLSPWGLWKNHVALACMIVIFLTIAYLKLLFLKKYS

[2] = target: T1, ABCG2; experiment: vanadate-sensitive ATPase assay in ABCG2 membrane vesicles; supported by [3H]-mitoxantrone accumulation and efflux in cells; assay type: biochemical; set-up: membrane vesicles prepared from ABCG2 expressing High-five insect cells

SMILES	radiolabelled drug efflux in ABCG2-overexpressing versus parental cells [1]	vanadate-sensitive ATPase assay in ABCG2 membrane vesicles; supported by [3H]-mi [2]
O=C1c2c(O)ccc(O)c2C(=O)c2c(NCCNCCO)ccc(NCCNCCO)c21 [mitoxantrone]	ABCG2-overexpressing cell lines showed a significantly higher efflux activity compared to parental cell lines	–
Cc1c(NC(=O)OC[C@@H]2COCCN2)cn2ncnc(Nc3ccc4c(cnn4Cc4cccc(F)c4)c3)c12 [BMS-599626, [4-[[1-(3-fluorophenyl)methyl]-1H-indazol5-ylamino]-5-methylpyrrolo [2,1-f][1,2,4]triazin6-yl]carbamic acid, (3S)-3-morpholinylmethyl ester]	–	7.6 fold inhibition of ATPase activity at 3 µM
